Results as given in PubChem BioAssay (NCI).
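Step 1: Grow cells in 96-well plates. Step 2: Expose to compound for 48 hours at 5 concentrations. Step 3: Interpolate endpoints linearly; if unreached, use highest concentration. GI50 marks 50% less growth. TGI is the concentration that stops growth completely.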

Experiments:
Test in all cases: NCI-60 cell line screen, 48 h
A498 renal = system: A498 renal
ACHN renal = system: ACHN renal
BT-549 breast = system: BT-549 breast
CAKI-1 renal = system: CAKI-1 renal
COLO 205 colon = system: COLO 205 colon
DU-145 prostate = system: DU-145 prostate
EKVX NSCLC = system: EKVX NSCLC
HCC-2998 colon = system: HCC-2998 colon
HCT-116 colon = system: HCT-116 colon
HCT-15 colon = system: HCT-15 colon
HL-60(TB) leukemia = system: HL-60(TB) leukemia
HOP-62 NSCLC = system: HOP-62 NSCLC
HT29 colon = system: HT29 colon
LOX IMVI melanoma = system: LOX IMVI melanoma
MALME-3M melanoma = system: MALME-3M melanoma
MCF7 breast = system: MCF7 breast
MDA-MB-231 breast = system: MDA-MB-231 breast
MDA-MB-435 = system: MDA-MB-435
NCI-H226 lung = system: NCI-H226 lung
NCI-H23 lung = system: NCI-H23 lung
NCI-H460 lung = system: NCI-H460 lung
NCI-H522 lung = system: NCI-H522 lung
NCI/ADR-RES ovarian = system: NCI/ADR-RES ovarian
OVCAR-3 ovarian = system: OVCAR-3 ovarian
OVCAR-8 ovarian = system: OVCAR-8 ovarian
RXF 393 renal = system: RXF 393 renal
SF-268 CNS = system: SF-268 CNS
SF-539 CNS = system: SF-539 CNS
SK-MEL-28 melanoma = system: SK-MEL-28 melanoma
SK-MEL-5 melanoma = system: SK-MEL-5 melanoma
SK-OV-3 ovarian = system: SK-OV-3 ovarian
SN12C renal = system: SN12C renal
SNB-19 CNS = system: SNB-19 CNS
SNB-75 CNS = system: SNB-75 CNS
T-47D breast = system: T-47D breast
U251 CNS = system: U251 CNS
UACC-257 melanoma = system: UACC-257 melanoma
UACC-62 melanoma = system: UACC-62 melanoma
786-0 renal = system: 786-0 renal
CCRF-CEM leukemia = system: CCRF-CEM leukemia
HOP-92 NSCLC = system: HOP-92 NSCLC
K-562 leukemia = system: K-562 leukemia
M14 melanoma = system: M14 melanoma
OVCAR-4 ovarian = system: OVCAR-4 ovarian
RPMI-8226 leukemia = system: RPMI-8226 leukemia
SR leukemia = system: SR leukemia
SW-620 colon = system: SW-620 colon
UO-31 renal = system: UO-31 renal
A549 NSCLC = system: A549 NSCLC
HS 578T breast = system: HS 578T breast
IGROV1 ovarian = system: IGROV1 ovarian
KM12 colon = system: KM12 colon
MOLT-4 leukemia = system: MOLT-4 leukemia
OVCAR-5 ovarian = system: OVCAR-5 ovarian
PC-3 prostate = system: PC-3 prostate
SF-295 CNS = system: SF-295 CNS
SK-MEL-2 melanoma = system: SK-MEL-2 melanoma
TK-10 renal = system: TK-10 renal

## O=C(CCCn1c(=O)c2sc3ccccc3c2n2nnc(-c3ccccc3)c12)NCCc1cnc[nH]1
A498 renal
  GI50: 1.55 µM
  TGI: 3 µM
ACHN renal
  GI50: 1.66 µM
  TGI: 3.02 µM
BT-549 breast
  GI50: 17.3 µM
  TGI: 41.5 µM
CAKI-1 renal
  GI50: 0.181 µM
  TGI: 1.71 µM
COLO 205 colon
  GI50: 1.1 µM
  TGI: 4.8 µM
DU-145 prostate
  GI50: 1.55 µM
  TGI: 2.98 µM
EKVX NSCLC
  GI50: 2.7 µM
  TGI: 8.77 µM
HCC-2998 colon
  GI50: 1.77 µM
  TGI: 4.15 µM
HCT-116 colon
  GI50: 0.341 µM
  TGI: 1.66 µM
HCT-15 colon
  GI50: 1.26 µM
  TGI: 2.51 µM
HL-60(TB) leukemia
  GI50: 1.41 µM
  TGI: 6.36 µM
HOP-62 NSCLC
  GI50: 2.32 µM
  TGI: 5.27 µM
HT29 colon
  GI50: 1.36 µM
  TGI: 3.16 µM
LOX IMVI melanoma
  GI50: 1.59 µM
  TGI: 2.93 µM
MALME-3M melanoma
  GI50: 2.49 µM
  TGI: 5.49 µM
MCF7 breast
  GI50: 1.45 µM
  TGI: 3.08 µM
MDA-MB-231 breast
  GI50: 1.92 µM
  TGI: 3.61 µM
MDA-MB-435
  GI50: 1.49 µM
  TGI: 3.06 µM
NCI-H226 lung
  GI50: 18.6 µM
  TGI: 37.7 µM
NCI-H23 lung
  GI50: 2.92 µM
  TGI: 11.6 µM
NCI-H460 lung
  GI50: 1.87 µM
  TGI: 3.8 µM
NCI-H522 lung
  GI50: 1.06 µM
  TGI: 11.7 µM
NCI/ADR-RES ovarian
  GI50: 3.22 µM
  TGI: > 100 µM
OVCAR-3 ovarian
  GI50: 1.52 µM
  TGI: 3.18 µM
OVCAR-8 ovarian
  GI50: 0.32 µM
  TGI: 2.79 µM
RXF 393 renal
  GI50: 2.52 µM
  TGI: 5.02 µM
SF-268 CNS
  GI50: 1.77 µM
  TGI: 3.72 µM
SF-539 CNS
  GI50: 0.664 µM
  TGI: 2.19 µM
SK-MEL-28 melanoma
  GI50: 1.75 µM
  TGI: 3.2 µM
SK-MEL-5 melanoma
  GI50: 1.91 µM
  TGI: 4.11 µM
SK-OV-3 ovarian
  GI50: 3.44 µM
  TGI: 15.7 µM
SN12C renal
  GI50: 0.271 µM
  TGI: 1.87 µM
SNB-19 CNS
  GI50: 1.71 µM
  TGI: 5.04 µM
SNB-75 CNS
  GI50: 1.86 µM
  TGI: 4.03 µM
T-47D breast
  GI50: 1.4 µM
  TGI: 4.49 µM
U251 CNS
  GI50: 1.06 µM
  TGI: 2.24 µM
UACC-257 melanoma
  GI50: 2.04 µM
  TGI: 4.58 µM
UACC-62 melanoma
  GI50: 1.91 µM
  TGI: 3.56 µM

## CN(C)c1ccc(-c2ccc(-c3ccc(C(=N)N)c(F)c3)s2)cc1
786-0 renal
  GI50: 1.87 µM
  TGI: 3.49 µM
A498 renal
  GI50: 0.0149 µM
  TGI: 1.15 µM
CAKI-1 renal
  GI50: 1.59 µM
  TGI: 3.11 µM
CCRF-CEM leukemia
  GI50: 0.329 µM
  TGI: 1.26 µM
DU-145 prostate
  GI50: 1.65 µM
  TGI: 3.18 µM
HCT-116 colon
  GI50: 1.17 µM
  TGI: 2.6 µM
HOP-92 NSCLC
  GI50: 1.4 µM
  TGI: 3.03 µM
K-562 leukemia
  GI50: 0.258 µM
  TGI: 0.699 µM
M14 melanoma
  GI50: 1.74 µM
  TGI: 3.39 µM
MDA-MB-435
  GI50: 1.65 µM
  TGI: 3.17 µM
NCI-H460 lung
  GI50: 1.77 µM
  TGI: 3.37 µM
OVCAR-3 ovarian
  GI50: 1.94 µM
  TGI: 3.59 µM
OVCAR-4 ovarian
  GI50: 1.87 µM
  TGI: 3.5 µM
OVCAR-8 ovarian
  GI50: 2.23 µM
  TGI: 5.38 µM
RPMI-8226 leukemia
  GI50: 1.91 µM
  TGI: 4.48 µM
SR leukemia
  GI50: 0.244 µM
  TGI: 0.692 µM
SW-620 colon
  GI50: 1.48 µM
  TGI: 3.07 µM
UACC-62 melanoma
  GI50: 1.83 µM
  TGI: 3.66 µM
UO-31 renal
  GI50: 1.54 µM
  TGI: 3.05 µM

## Cc1ccc(N/C(Sc2ccccc2)=C(/C(Cl)=C(Cl)Cl)[N+](=O)[O-])c(C)c1
786-0 renal
  TGI: 39.1 µM
A498 renal
  TGI: 53.4 µM
A549 NSCLC
  TGI: > 81.5 µM
ACHN renal
  TGI: > 100 µM
BT-549 breast
  TGI: 29.1 µM
CAKI-1 renal
  TGI: 30.7 µM
CCRF-CEM leukemia
  TGI: 76.1 µM
COLO 205 colon
  TGI: 35.3 µM
DU-145 prostate
  TGI: > 87.1 µM
EKVX NSCLC
  TGI: 65.1 µM
HCC-2998 colon
  TGI: 36 µM
HCT-116 colon
  TGI: 30.8 µM
HCT-15 colon
  TGI: 32.3 µM
HL-60(TB) leukemia
  TGI: 56.2 µM
HOP-62 NSCLC
  TGI: 59.7 µM
HOP-92 NSCLC
  TGI: 45.8 µM
HS 578T breast
  TGI: > 100 µM
HT29 colon
  TGI: 35.6 µM
IGROV1 ovarian
  TGI: 40.2 µM
K-562 leukemia
  TGI: 45.8 µM
KM12 colon
  TGI: 32.2 µM
LOX IMVI melanoma
  TGI: 28.2 µM
M14 melanoma
  TGI: 59.7 µM
MALME-3M melanoma
  TGI: 34 µM
MCF7 breast
  TGI: 28 µM
MDA-MB-231 breast
  TGI: 33.2 µM
MDA-MB-435
  TGI: 27.7 µM
MOLT-4 leukemia
  TGI: > 100 µM
NCI-H226 lung
  TGI: 55.4 µM
NCI-H23 lung
  TGI: 68.7 µM
NCI-H460 lung
  TGI: 32.7 µM
NCI-H522 lung
  TGI: 42.9 µM
NCI/ADR-RES ovarian
  TGI: 70.4 µM
OVCAR-4 ovarian
  TGI: > 100 µM
OVCAR-5 ovarian
  TGI: 23 µM
OVCAR-8 ovarian
  TGI: > 100 µM
PC-3 prostate
  TGI: 36.1 µM
RPMI-8226 leukemia
  TGI: 64.8 µM
SF-268 CNS
  TGI: 29.5 µM
SF-295 CNS
  TGI: 47 µM
SF-539 CNS
  TGI: 45.4 µM
SK-MEL-2 melanoma
  TGI: 36.9 µM
SK-MEL-28 melanoma
  TGI: 41.2 µM
SK-MEL-5 melanoma
  TGI: 81.7 µM
SK-OV-3 ovarian
  TGI: 99.2 µM
SN12C renal
  TGI: 43.1 µM
SNB-19 CNS
  TGI: 54 µM
SR leukemia
  TGI: > 100 µM
SW-620 colon
  TGI: 36.7 µM
TK-10 renal
  TGI: > 100 µM
U251 CNS
  TGI: 26.7 µM
UACC-257 melanoma
  TGI: 38.2 µM
UACC-62 melanoma
  TGI: 62.2 µM
